Molecules are shown by their SMILES. Where two headings read alike, the source gives them in different places.

The values below come from PMC10187112 (Journal of Enzyme Inhibition and Medicinal Chemistry, 2023).

For one data set, the target named is human D2S receptor (Homo sapiens, UniProt P14416). Nature of the data set: Functional assay of cAMP signalling (D2 antagonism), CHO-K1 cells. To be noted: for inhibition at 1 µM: CHO-K1, read-out: % of inhibition of 1 µM dopamine response; for inhibition at 10 µM: CHO-K1, read-out: D2 antagonism %inh. of DA response.
Data set [1] deals with T1, human muscarinic M1 receptor (Homo sapiens, UniProt P11229).
T1 construct: expressed in transfected cells; host or cells: CHO-K1
T1 sequence (P11229 1-460): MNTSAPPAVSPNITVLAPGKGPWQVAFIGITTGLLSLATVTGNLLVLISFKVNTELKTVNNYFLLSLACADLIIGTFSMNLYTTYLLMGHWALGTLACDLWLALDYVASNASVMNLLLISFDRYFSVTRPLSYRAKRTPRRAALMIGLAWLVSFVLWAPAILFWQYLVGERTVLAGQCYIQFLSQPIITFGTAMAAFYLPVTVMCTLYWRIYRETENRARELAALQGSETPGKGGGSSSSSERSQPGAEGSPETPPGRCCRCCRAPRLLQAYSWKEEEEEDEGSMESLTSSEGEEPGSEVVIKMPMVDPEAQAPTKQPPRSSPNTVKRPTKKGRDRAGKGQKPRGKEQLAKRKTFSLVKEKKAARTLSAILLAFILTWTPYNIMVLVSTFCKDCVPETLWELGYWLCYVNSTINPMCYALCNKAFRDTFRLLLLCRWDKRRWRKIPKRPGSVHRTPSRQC
Nature of the data set: Competition radioligand binding, [3H]-pirenzepine, CHO-K1 membranes. To be noted: read-out: % inh. at 10 μM M1.
Experimental: (§1) Competition radioligand binding assays were performed on membranes isolated from cell lines stable expressing the cloned human receptors, which were either in-house or commercially available. […] Assays (250 μL assay final volume) were carried out in 96-well polypropylene plates in duplicate. In short, suspension of appropriate membrane protein was incubated in assay buffer with addition of the corresponding radioligand, in the presence or absence of tested compound or reference compound. […] After the incubation, the content of the test plates was transferred to 96-well plates with glass fibre filter GF/B or GF/C, previously pre-treated with polyethyleneimine (PEI), and rapidly filtered with the use of vacuum, followed by rapid washing with cold (4 °C) wash buffer. After that the filter plates were dried at 60 °C for 1 h. Then, 30 μL of liquid scintillation cocktail (UniverSol-ES, MP Biomedicals, Solon, OH) was added to each well of the filter plates and the radioactivity was measured in a MicroBeta2 microplate scintillation counter (PerkinElmer, Madrid, Spain).
(§2) Competition binding curves were fitted to a one-site competition binding model (Fit Ki) with the use of Prism 7 software (GraphPad, San Diego, CA). logKi (log of the equilibrium dissociation constant (Ki)) values were obtained after constraining the concentration of radioligand employed in the assay and its dissociation constant (KD) as determined in saturation radioligand binding assays.

For data set [2], the target named is T2, human dopamine D1 receptor (Homo sapiens, UniProt P21728).
T2 construct: expressed in transfected cells; host or cells: CHO-K1
Nature of the data set: Competition radioligand binding, [3H]-SCH-23390, CHO-K1 membranes.
Experimental: Competition radioligand binding assays were performed on membranes isolated from cell lines stable expressing the cloned human receptors, which were either in-house or commercially available. […] Assays (250 μL assay final volume) were carried out in 96-well polypropylene plates in duplicate. In short, suspension of appropriate membrane protein was incubated in assay buffer with addition of the corresponding radioligand, in the presence or absence of tested compound or reference compound. […] Then, 30 μL of liquid scintillation cocktail (UniverSol-ES, MP Biomedicals, Solon, OH) was added to each well of the filter plates and the radioactivity was measured in a MicroBeta2 microplate scintillation counter (PerkinElmer, Madrid, Spain).
as §2

The test system of data set [3] is mice. Put plainly: Spontaneous locomotor activity. To be noted: recorded 30 min, 30 min after injection.
Data set [4] concerns the target T3, human serotonin 5-HT2A receptor (Homo sapiens, UniProt P28223).
T3 construct: expressed in transfected cells; host or cells: CHO-K1
Nature of the data set: Competition radioligand binding, [3H]-Ketanserin, CHO-K1 membranes. To be noted: for Ki: human cloned 5-HT2A; for pKi 5-HT2A/pKi D2: ratio of pKi values.
Experimental: (§3) Experiments were carried out in membranes from cell lines stably expressing the human cloned receptors.
as §1, §2

The target in data set [5] is T4, human dopamine D2 (D2S) receptor (Homo sapiens, UniProt P14416).
T4 construct: expressed in transfected cells; host or cells: CHO-K1
Nature of the data set: Competition radioligand binding, [3H]-spiperone, CHO-K1 membranes. To be noted: human cloned D2S; read-out: Ki D2 (converted).
Experimental: as §3, §1, §2

The target in data set [6] is T5, human serotonin 5-HT1A receptor (Homo sapiens, UniProt P08908).
T5 construct: expressed in transfected cells; host or cells: HEK293
T5 sequence (P08908 1-422): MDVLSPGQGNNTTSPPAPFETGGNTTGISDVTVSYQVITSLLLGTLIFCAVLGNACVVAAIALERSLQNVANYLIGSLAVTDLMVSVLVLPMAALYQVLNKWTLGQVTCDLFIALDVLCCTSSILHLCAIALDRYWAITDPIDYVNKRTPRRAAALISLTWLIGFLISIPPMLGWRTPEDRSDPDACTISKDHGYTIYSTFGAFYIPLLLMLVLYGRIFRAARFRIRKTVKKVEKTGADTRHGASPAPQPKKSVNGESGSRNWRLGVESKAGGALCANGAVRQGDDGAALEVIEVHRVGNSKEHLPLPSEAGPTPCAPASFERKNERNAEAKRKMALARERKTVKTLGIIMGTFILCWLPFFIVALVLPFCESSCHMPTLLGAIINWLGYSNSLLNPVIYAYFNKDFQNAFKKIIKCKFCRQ
Nature of the data set: Competition radioligand binding, [3H]-8-OH-DPAT, HEK293 membranes. To be noted: human cloned 5-HT1A.
Experimental: as §3, §1, §2

The next data set deals with T6, human 5-HT7 receptor (Homo sapiens, UniProt P34969).
T6 construct: expressed in transfected cells; host or cells: HEK293
Nature of the data set: Competition radioligand binding, [3H]-SB269970, HEK293 membranes.

Another data set concerns the target T7, human 5-HT2A receptor (Homo sapiens, UniProt P28223).
T7 construct: expressed in transfected cells; host or cells: CHO-K1
Put plainly: Functional assay of inositol phosphate production (5-HT2A antagonism), CHO-K1 cells. Format: cell-based. To be noted: for inhibition at 10 µM: CHO-K1, read-out: 5-HT2A antagonism %inh. of 5-HT response; for Kb: read-out: 5-HT2A antagonism (IP signalling) Kb.

Data set [7] relates to mice. Nature of the data set: Elevated plus maze (EPM) test (anxiety). To be noted: 60 min before test.
For data set [8], the system named is mice. Put plainly: Amphetamine-induced hyperactivity. To be noted: 30 min before amphetamine 5 mg/kg s.c., p < 0.0001.
The subject of data set [9] is mice. Put plainly: Passive avoidance (PA) test (memory). To be noted: 60 min before test.
For data set [10], the target named is T8, human dopamine D3 receptor (Homo sapiens, UniProt P35462).
T8 construct: expressed in transfected cells; host or cells: CHO-K1
Put plainly: Competition radioligand binding, [3H]-spiperone, CHO-K1 membranes.
Experimental: as §1, §2

Data set [11] deals with mice. Nature of the data set: Rota-rod test (motor coordination). The format is in vivo. To be noted: 60 min after treatment, 3 min. As to the method: To fully assess the impact of selected compounds on animals’ motor coordination, both compounds (at the same doses as were used for spontaneous locomotor activity measurements) were tested also in the rota-rod test. The applied protocol has been already validated in our laboratory[12]^,[62]^,[63]. […] The time spent by each mouse on the rota-rod was measured for 3 min. The additional aim of the rota-rod test was to confirm the appropriate selection of doses for further behavioural examination. […] After such confirmation, the above-mentioned doses were chosen for the rest of behavioural tests.

The target of the next data set is T9, human 5-HT1A receptor (Homo sapiens, UniProt P08908).
T9 construct: expressed in transfected cells; host or cells: HEK293
T9 sequence (P08908 1-422): T5 sequence (P08908 1-422)
Put plainly: Functional assay of cAMP signalling (5-HT1A agonism), HEK293 cells. The format is cell-based. To be noted: for inhibition at 10 µM: HEK293, 10 µM compound, 1 µM forskolin, read-out: 5-HT1A agonism %inh. of FSK response.

In data set [12] the target is T10, human histamine H1 receptor (Homo sapiens, UniProt P35367).
T10 construct: expressed in transfected cells; host or cells: CHO-K1
Nature of the data set: Competition radioligand binding, [3H]-pyrilamine, CHO-K1 membranes.
Experimental: as §1, §2

Setting [13] is: read-out: Ki 5-HT1A (converted).

T7 sequence (P28223 whole entry): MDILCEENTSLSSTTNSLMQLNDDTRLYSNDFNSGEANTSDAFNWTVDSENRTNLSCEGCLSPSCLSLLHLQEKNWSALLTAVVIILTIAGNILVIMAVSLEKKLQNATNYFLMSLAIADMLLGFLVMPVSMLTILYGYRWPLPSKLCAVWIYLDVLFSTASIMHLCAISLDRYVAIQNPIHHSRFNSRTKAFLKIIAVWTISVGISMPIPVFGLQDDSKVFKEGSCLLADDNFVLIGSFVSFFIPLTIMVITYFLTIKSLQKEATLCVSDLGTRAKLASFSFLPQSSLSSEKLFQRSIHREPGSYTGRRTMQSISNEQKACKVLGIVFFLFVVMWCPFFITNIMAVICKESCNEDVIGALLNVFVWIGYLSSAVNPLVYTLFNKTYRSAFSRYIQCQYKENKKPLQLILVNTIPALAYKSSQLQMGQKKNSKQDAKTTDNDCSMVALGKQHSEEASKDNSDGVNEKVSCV
T3 sequence (P28223 whole entry): as above
human D2S receptor, sequence (P14416 1-414 isoform P14416-2): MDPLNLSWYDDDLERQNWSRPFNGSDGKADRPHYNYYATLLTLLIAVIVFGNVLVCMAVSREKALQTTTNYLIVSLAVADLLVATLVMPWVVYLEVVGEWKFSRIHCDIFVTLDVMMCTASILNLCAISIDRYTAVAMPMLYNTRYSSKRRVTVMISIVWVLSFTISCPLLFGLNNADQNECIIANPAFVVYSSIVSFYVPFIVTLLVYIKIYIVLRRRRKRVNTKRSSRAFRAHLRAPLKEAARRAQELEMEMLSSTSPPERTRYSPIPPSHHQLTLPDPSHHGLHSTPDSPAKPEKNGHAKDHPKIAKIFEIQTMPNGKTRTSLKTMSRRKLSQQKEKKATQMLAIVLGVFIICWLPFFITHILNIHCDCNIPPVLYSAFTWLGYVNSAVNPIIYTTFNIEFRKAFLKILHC
T6 sequence (P34969 whole entry): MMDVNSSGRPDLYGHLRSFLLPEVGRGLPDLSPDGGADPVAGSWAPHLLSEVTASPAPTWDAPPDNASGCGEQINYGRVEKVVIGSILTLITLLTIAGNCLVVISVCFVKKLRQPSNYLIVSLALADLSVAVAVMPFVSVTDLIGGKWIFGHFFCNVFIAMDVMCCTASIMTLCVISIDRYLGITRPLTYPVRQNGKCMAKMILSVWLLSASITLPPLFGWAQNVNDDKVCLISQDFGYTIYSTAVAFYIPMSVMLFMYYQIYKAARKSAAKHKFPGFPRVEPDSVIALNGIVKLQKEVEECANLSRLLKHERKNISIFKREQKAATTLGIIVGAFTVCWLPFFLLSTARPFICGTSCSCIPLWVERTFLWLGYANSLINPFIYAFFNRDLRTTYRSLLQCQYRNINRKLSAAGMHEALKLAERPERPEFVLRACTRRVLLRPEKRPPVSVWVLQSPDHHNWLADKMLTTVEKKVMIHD
T2 sequence (P21728 whole entry): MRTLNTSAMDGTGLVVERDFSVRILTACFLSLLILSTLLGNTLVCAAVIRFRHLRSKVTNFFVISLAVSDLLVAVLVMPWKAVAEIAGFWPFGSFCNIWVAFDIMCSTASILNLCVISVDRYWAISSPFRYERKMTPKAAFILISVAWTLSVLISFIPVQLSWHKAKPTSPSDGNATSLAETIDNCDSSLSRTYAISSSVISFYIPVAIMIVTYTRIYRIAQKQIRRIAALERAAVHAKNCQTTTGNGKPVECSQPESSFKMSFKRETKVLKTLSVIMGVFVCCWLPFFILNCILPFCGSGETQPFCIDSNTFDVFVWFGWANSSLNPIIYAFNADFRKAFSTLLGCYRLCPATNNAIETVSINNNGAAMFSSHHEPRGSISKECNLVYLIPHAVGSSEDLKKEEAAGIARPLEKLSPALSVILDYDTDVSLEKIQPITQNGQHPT
T8 sequence (P35462 whole entry): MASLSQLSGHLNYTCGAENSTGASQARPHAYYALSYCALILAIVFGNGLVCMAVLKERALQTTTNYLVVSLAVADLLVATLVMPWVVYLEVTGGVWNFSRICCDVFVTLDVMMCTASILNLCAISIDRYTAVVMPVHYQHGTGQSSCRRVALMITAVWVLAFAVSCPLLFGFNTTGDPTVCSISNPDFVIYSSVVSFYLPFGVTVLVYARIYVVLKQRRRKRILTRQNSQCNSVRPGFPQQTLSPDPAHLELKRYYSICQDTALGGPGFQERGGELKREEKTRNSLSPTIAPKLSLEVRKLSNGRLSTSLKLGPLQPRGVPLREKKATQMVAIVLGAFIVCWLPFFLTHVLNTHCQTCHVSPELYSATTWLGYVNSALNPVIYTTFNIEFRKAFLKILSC
T10 sequence (P35367 whole entry): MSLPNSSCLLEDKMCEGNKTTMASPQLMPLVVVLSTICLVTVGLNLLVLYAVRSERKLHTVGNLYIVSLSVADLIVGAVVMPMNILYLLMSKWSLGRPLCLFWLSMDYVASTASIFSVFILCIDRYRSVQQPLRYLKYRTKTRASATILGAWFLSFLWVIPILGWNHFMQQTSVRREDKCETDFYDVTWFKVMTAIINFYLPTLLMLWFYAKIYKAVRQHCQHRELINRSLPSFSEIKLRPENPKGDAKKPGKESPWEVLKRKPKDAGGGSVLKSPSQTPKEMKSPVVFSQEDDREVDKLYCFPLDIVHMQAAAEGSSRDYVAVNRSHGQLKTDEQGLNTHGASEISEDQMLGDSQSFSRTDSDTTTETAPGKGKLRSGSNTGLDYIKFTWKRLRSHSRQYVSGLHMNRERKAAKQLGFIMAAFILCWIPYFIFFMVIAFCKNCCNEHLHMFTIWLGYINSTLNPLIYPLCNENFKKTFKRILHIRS
T4 sequence (P14416 1-414 isoform P14416-2): as the sequence (P14416 1-414 isoform P14416-2) above
Experimental for human 5-HT1A receptor: The activity of selected compounds at 5-HT1A receptor was investigated in cell-based functional assays of cAMP signalling in the HEK293 cell line stably expressing the cloned human 5-HT1A receptor also employed for the radioligand binding assays. […] Test compounds were added to the assay plates from 5× working dilution intermediate plates, which were prepared by means of acoustic noncontact dispensing of the compounds, keeping vehicle concentration (0.1% DMSO) constant in the assay.
Experimental for human 5-HT2A receptor: The activity of selected compounds at 5-HT2A receptors was investigated in cell-based functional assays of IP production in the CHO-K1 cell line stably expressing the cloned human 5-HT2A receptor also employed for the radioligand binding assays. Twenty-four hours before the experiment, cells in culture were seeded in complete growth medium prepared with dialysed foetal bovine serum, in half-area, white, 96-well tissue culture plates (Corning®, Fisher Scientific SL, Madrid, Spain). At the day of assay, plates were washed with assay buffer (kit stimulation buffer) and incubated with test compounds for 10 min at 37 °C. Test compounds were added to the assay plates from 7× working dilution intermediate plates that were prepared by means of acoustic noncontact dispensing of the compounds, keeping vehicle concentration (0.1% DMSO) constant in the assay. […] After this time, cellular IP levels were quantified by using the HTRF-based inositol monophosphate kit IP-One Gq kit (Cisbio, Bioassays, Codolet, France) following the manufacturer’s protocol. […] Basal IP levels were determined in control wells in the absence of compound and agonist. […] Kb value of the compounds was estimated as described above for functional assays of cAMP signalling at D2 receptors.
Experimental for human 5-HT7 receptor: as §1, §2

As for `O=C(NCCCN1CCN(c2ccccc2)CC1)c1n[nH]c2ccccc12` [Compound 1, N-(3-(4-phenylpiperazin-1-yl)propyl)-1H-indazole-3-carboxamide], the Kb (as a rule, the affinity of an antagonist, worked out from how it opposes an agonist) on human D2S receptor stood at 22.5 nM; on human 5-HT2A receptor, 80.2 ± 20.1 nM. On human D2S receptor, the inhibition at 1 µM amounted to 48.5 ± 4.9%. Also, the inhibition at 10 µM at human D2S receptor came out at 50.3 ± 6.3%; in [1], 21 ± 6%; at human 5-HT2A receptor, 99.1 ± 2.5%; on human 5-HT1A receptor it was 85.1 ± 3.3%. Besides, the Ki is 241 nM in data set [2]; 35.6 nM in [4]; 69 nM in data set [5]; 155 nM in data set [6] (setting [13]); 540 nM at human 5-HT7 receptor; 711 nM in data set [10]. Moreover, in data set [12], the Ki is 474 nM. For the same compound, the Spontaneous locomotor activity entry is reported as “did not impair animals’ mobility” in the data set on mice [3] (10 mg/kg i.p.); “statistically significant decrease in the locomotor activity” in the data set on mice [3] (20 mg/kg i.p., p < 0.05); “statistically significant decrease in the locomotor activity” in the data set with mice [3] (40 mg/kg i.p., p < 0.05). Moreover, in [4], the “pKi 5-HT2A/pKi D2” value amounted to 1.04. The “Effect on anxiety in EPM test” value with mice [7] (10 mg/kg i.p.) is on record as “anxiolytic effect”. The “Percentage of open arm entries (EPM)” value in the data set on mice [7] (10 mg/kg i.p., vs. control) is given as “increase”. Moreover, the “Percentage of open arm time (EPM)” value with mice [7] (10 mg/kg i.p., vs. control) is reported as “increase”. Moreover, the “Effect on amphetamine-induced hyperactivity” value in the data set with mice [8] (10 mg/kg i.p.) is recorded as “significantly reduced hyperactivity induced by amphetamine”. For the same compound, the “Effect on PA performance (memory acquisition)” value in the data set on mice [9] (10 mg/kg i.p.) was “no statistically significant effect on PA performance”. The “Motor coordination (rota-rod)” value with mice [11] (10, 20, and 40 mg/kg i.p.) is given as “lack of statistically significant difference”. Also, at human 5-HT1A receptor, the EC50 – broadly, the midpoint of the concentration-response curve – came out at 324 ± 69 nM.
As for `O=C(NCCCN1CCN(c2cccc(F)c2)CC1)c1n[nH]c2ccccc12` [Compound 10, N-(3-(4-(3-fluorophenyl)piperazin-1-yl)propyl)-1H-indazole-3-carboxamide], the Kb turned out to be 31.2 nM on human D2S receptor and 101 ± 31 nM at human 5-HT2A receptor. The inhibition at 1 µM on human D2S receptor was 50.8 ± 5.4%. For the same compound, the inhibition at 10 µM on human D2S receptor came out at 52.6 ± 9.8%; in data set [1], 0%; on human 5-HT2A receptor, 96.8 ± 2%; at human 5-HT1A receptor it was 90.2 ± 4.1%. Also, the Ki is 181 nM in data set [2]; 94.4 nM in data set [4]; 112 nM in data set [6] (mean ± SEM, read-out: pKi 5-HT1A (converted)); 114 nM in data set [6] (setting [13]); 589 nM on human 5-HT7 receptor; 719 nM in data set [10]. Further, the Ki in data set [12] is 1000 nM. The Spontaneous locomotor activity entry in the data set with mice [3] (20, 40, and 80 mg/kg i.p.) is “did not induce statistically significant changes”. Further, the “pKi 5-HT2A/pKi D2” value in [4] was 1.07. Moreover, the “Effect on anxiety in EPM test” value in the data set on mice [7] (40 mg/kg i.p.) is “no statistically significant effect on the EPM performance”. For the same compound, the “Effect on amphetamine-induced hyperactivity” value in the data set with mice [8] (40 mg/kg i.p.) was “significantly reduced hyperactivity induced by amphetamine”. For the same compound, the “Effect on PA performance (memory acquisition)” value with mice [9] (40 mg/kg i.p.) is on record as “no statistically significant effect on PA performance”. The “Motor coordination (rota-rod)” value with mice [11] (20, 40, and 80 mg/kg i.p.) is on record as “lack of statistically significant difference”. The same compound registered an EC50 on human 5-HT1A receptor of 356 ± 83 nM.
